In one series the target is EGFR^WT (Homo sapiens, UniProt P00533). Nature of the series: EGFR inhibitory assay (Z-lyte kinase assay kit, Tyr 4 peptide, FRET-based). In kind it is biochemical. The procedure:
The test compounds were analyzed for EGFR inhibitory potential using z-lyte kinase assay kit–tyr 4 peptide assay kit (catalogue no. PV3193; Thermofisher, Mumbai, Maharashtra, India). The assay biochemically is FRET-based, which involves coupled enzyme format that relies on differential sensitivity of proteolytic cleavage of phosphorylated and non-phosphorylated peptides. The reaction proceeds in two steps, first involving the kinase reaction that is concerned with the transfer of phosphate group from ATP to single tyrosine residue, followed by development reaction, which involves site-protease role and cleaves non-phosphorylated peptide, allowing the disruption of FRET between donor and acceptor end of phosphorylated peptide, which facilitates deducing the emission ratio. The assay was performed per manufacturer protocol and per our published reports. […] Next, the assay master mix was prepared under ice-cold conditions by thawing and mixing kinase buffer (133 µL), kinase peptides (0.5 µL), phosphopeptide (0.5 µL) along with ATP (0.5 µL) solution. The master mix was added to testing compounds and further incubated for 1 h at room temperature and allowed the kinase reaction followed by development reaction to occur. After the stipulated period, reaction was stopped by addition of 5 µL stop solution to each reaction mixture.
The extent of phosphorylation was calculated by the following formula (Equation (1)):(1) % phosphorylation =1− (Emission ratio× F100%)− C100%/(C0%−C100%) + [Emission ratio (F100%−F0%)] where C0% = Average coumarin emission signal of the […]; F100% = Average Fluorescein emission signal of the 100% Phos. Control; F0% = Average Fluorescein emission signal of the 0% Phos. Control.

The test system of series [1] is HCT-116 WT (colon cancer) cells. Description: MTT antiproliferative assay, HCT-116 WT. The note with it: Homo sapiens, HCT-116, 48 h, read-out: IC50 (μM) ± SEM, HCT-116 WT (Colon Cancer). Background: Tetrazolium dyes change colour on reduction, which living cells bring about.
In another series the test system is A549 cells. Description: Flow cytometric PI cell cycle analysis in A549. In kind it is cell-based, human. The note with it: A549, sub-IC50 concentration, 48 h. The procedure:
The assays were performed following our previous published reports. Briefly, A549 cells were cultured in 100 mm dishes and maintained to attain at least 80% confluency. […] After the stipulated period, the remaining media were collected along with the cells (trypsinization) and were centrifuged (1200 rpm for 5 min) and washed two times using 1X PBS. Furthermore, the cells were raised to the concentration of 400 µL and were equally divided (5 × 10^4) in four aliquots. The first three aliquots were added with H2DCFDA (10 µM/100 µL), JC-1 dye (1 mM/mL) and Annexin V and PI (as per manufacturer protocol (Thermo Fisher: V13242, Maharashtra, India) to analyze detection of alteration in ROS, ∆ψm and mode of cell death, respectively. The cancer cells were incubated in the dark for 30 min at rt before analysis. Next, the fourth aliquot cells were fixed using chilled ethanol (70%) and incubated at −20 °C for 4 h to allow fixing. After 4 h, cells were centrifuged (2200 rpm for 10 min) and washed twice with 1X PBS. Furthermore, the cells were treated with RNase and PI was added and they were further incubated for 30 min in the dark before analysis. All the samples were analyzed using BD C6 flow cytometer using various FL channels.
(In general: Flow cytometry measures light scatter and fluorescence of single cells or particles in a stream.)

Another series deals with MCF-7 (breast) cells. Description: H2DCFDA assay of ROS in MCF-7. In kind it is cell-based. The note with it: sub-IC50 concentration, 48 h.
The test system of series [2] is MDA-MB-231 (breast cancer) cells. Description: MTT antiproliferative assay, MDA-MB-231. The settings on record: Homo sapiens, MDA-MB-231, 48 h, read-out: IC50 (μM) ± SEM, MDA-MB-231 (Breast Cancer).
The test system of the next series is MDA-MB-231 cells. Description: H2DCFDA assay of ROS in MDA-MB-231. The class given is cell-based, human. The note with it: sub-IC50 concentration, 48 h.
For series [3], the system named is A549 (lung cancer) cells harboring EGFR^WT. Nature of the series: MTT antiproliferative assay, A549. The note with it: Homo sapiens, A549, 48 h, read-out: IC50 (μM) ± SEM, A549 (Lung Cancer).
[4] abbreviates: EGFR wild type, tested at 100, 250, 500 and 720 nM, triplicate, read-out: EGFR Inhibition IC50 (nM) ± SEM.

Structures are written as SMILES. Where two headings read alike, the source gives them in different places.

Chain of EGFR^WT (P00533 25-1210): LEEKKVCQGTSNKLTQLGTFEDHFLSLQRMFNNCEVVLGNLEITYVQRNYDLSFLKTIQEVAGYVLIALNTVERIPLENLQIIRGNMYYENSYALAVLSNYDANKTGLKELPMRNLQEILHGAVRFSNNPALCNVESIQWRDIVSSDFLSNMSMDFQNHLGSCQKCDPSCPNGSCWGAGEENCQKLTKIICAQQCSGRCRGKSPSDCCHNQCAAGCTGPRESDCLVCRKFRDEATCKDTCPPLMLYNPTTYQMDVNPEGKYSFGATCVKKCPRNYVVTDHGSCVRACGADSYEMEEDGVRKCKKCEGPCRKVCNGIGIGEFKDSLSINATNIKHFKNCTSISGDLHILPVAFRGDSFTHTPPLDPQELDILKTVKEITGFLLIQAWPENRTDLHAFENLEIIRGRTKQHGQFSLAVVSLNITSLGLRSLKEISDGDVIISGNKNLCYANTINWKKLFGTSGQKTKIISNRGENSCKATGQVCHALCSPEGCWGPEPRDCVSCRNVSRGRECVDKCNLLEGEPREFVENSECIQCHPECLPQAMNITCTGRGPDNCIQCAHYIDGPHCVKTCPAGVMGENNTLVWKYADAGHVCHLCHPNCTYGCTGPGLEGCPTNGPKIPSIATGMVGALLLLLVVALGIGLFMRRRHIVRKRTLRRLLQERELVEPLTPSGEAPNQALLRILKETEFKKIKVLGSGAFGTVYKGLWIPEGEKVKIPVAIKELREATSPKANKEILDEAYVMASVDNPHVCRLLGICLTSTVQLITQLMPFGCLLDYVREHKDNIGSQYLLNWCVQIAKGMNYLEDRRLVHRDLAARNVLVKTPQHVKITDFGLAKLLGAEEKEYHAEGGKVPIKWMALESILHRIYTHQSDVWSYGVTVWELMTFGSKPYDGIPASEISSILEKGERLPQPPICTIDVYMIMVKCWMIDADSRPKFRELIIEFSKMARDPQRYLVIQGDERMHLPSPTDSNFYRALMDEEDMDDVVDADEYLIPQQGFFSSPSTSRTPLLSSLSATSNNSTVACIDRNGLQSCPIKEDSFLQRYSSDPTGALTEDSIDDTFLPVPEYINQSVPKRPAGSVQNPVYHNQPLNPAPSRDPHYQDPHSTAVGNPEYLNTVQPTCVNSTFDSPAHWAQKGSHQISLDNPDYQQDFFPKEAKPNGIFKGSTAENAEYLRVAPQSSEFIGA

Consider `COc1cc(-c2nc3ccccc3n3c(N)c(C#N)nc23)cc(OC)c1OC` [Compound 5a], for which, on EGFR^WT (EGFR wild type), the “EGFR^WT inhibitory activity in words” value was “poorly active or possessed no activity at all”. At EGFR^WT (setting [4]), the concentration for half-maximal inhibition (IC50) was greater than 720 nM.

Take `N#Cc1nc2c(-c3cccc([N+](=O)[O-])c3)nc3ccccc3n2c1N` [Compound 5b]: the IC50 on EGFR^WT (setting [4]) was determined as 244.45 ± 0.032 nM.

`CN(C)c1ccc(-c2nc3ccccc3n3c(N)c(C#N)nc23)cc1` [Compound 5c, 1-Amino-4-(4-(dimethylamino)phenyl)imidazo[1,2-a]quinoxaline-2-carbonitrile]: the melting point lay within 169 to 171 °C. For the same molecule, at EGFR^WT (EGFR wild type), the “EGFR^WT inhibitory activity in words” value is reported as “poorly active or possessed no activity at all”. Further, the IC50 on EGFR^WT (setting [4]) was greater than 720 nM.

Consider `CC(C)c1ccc(-c2nc3ccccc3n3c(N)c(C#N)nc23)cc1` [Compound 5d, 1-Amino-4-(4-isopropylphenyl)imidazo[1,2-a]quinoxaline-2-carbonitrile], for which the melting point lay in the range of 166 to 168 °C. In addition, the “EGFR^WT inhibitory activity in words” value on EGFR^WT (EGFR wild type) was “poorly active or possessed no activity at all”. For the same molecule, at EGFR^WT (setting [4]), the half-maximal inhibitory concentration (IC50) is greater than 720 nM.

Take `COc1ccc(OC)c(/C=N/c2c(C#N)nc3c(-c4cc(OC)ccc4OC)nc4ccccc4n23)c1` [Compound 6a]: the IC50 on EGFR^WT (setting [4]) came out at 429.81 ± 0.018 nM.

Turning to `COc1cc(/C=N/c2c(C#N)nc3c(-c4cc(OC)c(OC)c(OC)c4)nc4ccccc4n23)cc(OC)c1OC` [Compound 6b, (E)-1-((3,4,5-Trimethoxybenzylidene)amino)-4-(3,4,5-trimethoxyphenyl)imidazo[1,2-a]quinoxaline-2-carbonitrile], the concentration for half-maximal inhibition (IC50) came out at 5.1 ± 0.029 µM in series [1], 211.22 ± 0.027 nM at EGFR^WT (setting [4]) and 4.1 ± 0.031 µM in series [2]. The “Cell cycle analysis G1 (%)” value with A549 cells was determined as 34.51%. Besides, in the series with MCF-7 (breast) cells, the “Percentage decrease in ROS, MCF-7” value is “marginal”. Besides, in the series with MDA-MB-231 cells, the “Percentage decrease in ROS, MDA-MB-231” value was “marginal”.

`COc1ccc(/C=N/c2c(C#N)nc3c(-c4ccc(OC)c(OC)c4)nc4ccccc4n23)cc1OC` [Compound 6c, (E)-1-((3,4-Dimethoxybenzylidene)amino)-4-(3,4-dimethoxy-phenyl)imidazo[1,2-a]quinoxaline-2-carbonitrile] had a melting point of 170 to 172 °C. Further, the “EGFR^WT inhibitory activity in words” value at EGFR^WT (EGFR wild type) is “poorly active or possessed no activity at all”. The IC50 on EGFR^WT (setting [4]) was greater than 720 nM.

Regarding `N#Cc1nc2c(-c3ccc(Cl)cc3)nc3ccccc3n2c1/N=C/c1ccc(Cl)cc1` [Compound 6d], the “EGFR^WT inhibitory activity in words” value at EGFR^WT (EGFR wild type) was “poorly active or possessed no activity at all”. The half-maximal inhibitory concentration (IC50) at EGFR^WT (setting [4]) is greater than 720 nM.

Turning to `COc1ccc(/C=N/c2c(C#N)nc3n2-c2ccccc2NC3c2ccc(OC)c(OC)c2)cc1OC` (stereo not shown) [Compound 7a], on EGFR^WT (setting [4]), the IC50 was greater than 720 nM.

Take `N#Cc1nc2n(c1/N=C/c1ccccc1[N+](=O)[O-])-c1ccccc1NC2c1ccccc1[N+](=O)[O-]` (stereo not shown) [Compound 7b]: the IC50 at EGFR^WT (setting [4]) was greater than 720 nM.

On to `N#Cc1nc2n(c1/N=C/c1ccc(O)c(O)c1)-c1ccccc1NC2c1ccc(O)c(O)c1` (stereo not shown) [Compound 7c], for which, at EGFR^WT (setting [4]), the concentration for half-maximal inhibition (IC50) was determined as 620.17 ± 0.019 nM.

As for `COc1ccc(OC)c(/C=N/c2c(C#N)nc3n2-c2ccccc2NC3c2cc(OC)ccc2OC)c1` (stereo not shown) [Compound 7d], the IC50 on EGFR^WT (setting [4]) was found to be 652.56 ± 0.024 nM.

For `N#Cc1nc2n(c1/N=C/c1ccccc1Br)-c1ccccc1NC2c1ccccc1Br` (stereo not shown) [Compound 7e], the IC50 at EGFR^WT (setting [4]) worked out at 665.89 ± 0.029 nM.

For `N#Cc1nc2n(c1/N=C/c1ccco1)-c1ccccc1NC2c1ccco1` (stereo not shown) [Compound 7f], at EGFR^WT (setting [4]), the concentration for half-maximal inhibition (IC50) was found to be 232.4 ± 0.031 nM.

As to `N#Cc1nc2n(c1/N=C/c1ccc([N+](=O)[O-])cc1[N+](=O)[O-])-c1ccccc1NC2c1ccc([N+](=O)[O-])cc1[N+](=O)[O-]` (stereo not shown) [Compound 7g], the IC50 on EGFR^WT (setting [4]) was 476.87 ± 0.022 nM.

`N#Cc1nc2n(c1/N=C/c1ccccc1F)-c1ccccc1NC2c1ccccc1F` (stereo not shown) [Compound 7h]: the 50% inhibitory concentration (IC50) in series [1] is less than 1 µM; in series [3], 4.09 ± 0.024 µM; at EGFR^WT (setting [4]), 222.21 ± 0.028 nM; in series [2], 11.2 ± 0.022 µM.

Regarding `COc1cc(/C=N/c2c(C#N)nc3n2-c2ccccc2NC3c2cc(OC)c(OC)c(OC)c2)cc(OC)c1OC` (stereo not shown) [Compound 7i], on EGFR^WT (EGFR wild type), the “EGFR^WT inhibitory activity in words” value is listed as “poorly active or possessed no activity at all”. Also, the IC50 on EGFR^WT (setting [4]) amounted to 613.37 ± 0.024 nM.

As to `N#Cc1nc2n(c1/N=C/c1ccc([N+](=O)[O-])cc1)-c1ccccc1NC2c1ccc([N+](=O)[O-])cc1` (stereo not shown) [Compound 7j], the concentration for half-maximal inhibition (IC50) in series [1] is less than 1 µM; in series [3], 8.75 ± 0.028 µM; against EGFR^WT, 193.18 ± 0.021 nM; in series [2], 2.2 ± 0.026 µM.

`N#Cc1ccc(/C=N/c2c(C#N)nc3n2-c2ccccc2NC3c2ccc(C#N)cc2)cc1` (stereo not shown) [Compound 7k, (E)-1-((4-Cyanobenzylidene)amino)-4-(4-cyanophenyl)-4,5-dihydroimidazo[1,2-a]quinoxaline-2-carbonitrile]: the melting point was 173 to 175 °C. The “EGFR^WT inhibitory activity in words” value at EGFR^WT (EGFR wild type) is “poorly active or possessed no activity at all”. Also, the IC50 on EGFR^WT (setting [4]) is greater than 720 nM.

In the case of `N#Cc1ccc(C2Nc3ccccc3-n3c2nc(C#N)c3N)cc1` (stereo not shown) [Compound 8a], on EGFR^WT (setting [4]), the IC50 was greater than 720 nM.

On to `N#Cc1nc2n(c1N)-c1ccccc1NC2c1cccc([N+](=O)[O-])c1` (stereo not shown) [Compound 8b], for which the half-maximal inhibitory concentration (IC50) at EGFR^WT (setting [4]) was greater than 720 nM.

Molecule `N#Cc1nc2n(c1N)-c1ccccc1NC2c1ccccc1[N+](=O)[O-]` (stereo not shown) [Compound 8c, 1-Amino-4-(2-nitrophenyl)-4,5-dihydroimidazo[1,2-a]quinoxaline-2-carbonitrile] returned a melting point of 165 to 167 °C. Further, the IC50 at EGFR^WT (setting [4]) is greater than 720 nM.

Regarding `C/C(=N\c1c(C#N)nc2n1-c1ccccc1NC2(C)c1ccc(Cl)cc1)c1ccc(Cl)cc1` (stereo not shown) [Compound 9a], the IC50 was greater than 25 µM in series [1], 6.63 ± 0.031 µM in series [3], 223.32 ± 0.031 nM at EGFR^WT (setting [4]) and 14.1 ± 0.021 µM in series [2].

On to `C/C(=N\c1c(C#N)nc2n1-c1ccccc1NC2(C)c1cccs1)c1cccs1` (stereo not shown) [Compound 9b], for which the IC50 on EGFR^WT (setting [4]) came out at 244.51 ± 0.021 nM.

As for `COc1ccc(/C(C)=N/c2c(C#N)nc3n2-c2ccccc2NC3(C)c2ccc(OC)c(OC)c2)cc1OC` (stereo not shown) [Compound 9c], the IC50 in series [1] is 7.9 ± 0.027 µM; in series [3], 12.06 ± 0.021 µM; on EGFR^WT (setting [4]), 221.53 ± 0.028 nM; in series [2] it was 13.6 ± 0.028 µM.

On to `CC1(c2cccc([N+](=O)[O-])c2)Nc2ccccc2-n2c1nc(C#N)c2N` (stereo not shown) [Compound 10a], for which the 50% inhibitory concentration (IC50) on EGFR^WT (setting [4]) came out at 247.32 ± 0.021 nM.

As for `N#Cc1nc2n(c1N)-c1ccccc1NC2(C(=O)c1ccccc1)c1ccccc1` (stereo not shown) [Compound 10c], on EGFR^WT (setting [4]), the IC50 stood at 716.32 ± 0.026 nM.

`CC1(C)Nc2ccccc2-n2c1nc(C#N)c2N` [Compound 10d]: on EGFR^WT (setting [4]), the half-maximal inhibitory concentration (IC50) came to 624.57 ± 0.024 nM.

As for `N#Cc1nc2n(c1N)-c1ccccc1N1C(=O)CCC21` (stereo not shown) [Compound 11], the “EGFR^WT inhibitory activity in words” value on EGFR^WT (EGFR wild type) is on record as “poorly active or possessed no activity at all”. On EGFR^WT (setting [4]), the IC50 turned out to be 669.39 ± 0.019 nM.

In the case of `C#Cc1cccc(Nc2ncnc3cc(OCCOC)c(OCCOC)cc23)c1` [Erlotinib, erlotinib, reference compound], the results for the IC50 in series [1] and in series [2] were 2.98 ± 0.023 µM and 3.33 ± 0.018 µM, respectively.

The IC50 is the midpoint of a concentration-inhibition curve. As usually defined, the melting point is the temperature, or range, at which the solid turns liquid.

Values taken from PMC7967119, “Design and Synthesis of Non-Covalent Imidazo[1,2-a]quinoxaline-Based Inhibitors of EGFR and Their Anti-Cancer Assessment” (Molecules, 2021).
